{"source": "patent US20250144067A1", "about": "“PERSONALIZED STARVATION THERAPY FOR CANCER” (Faeth Therapeutics, Inc., priority 2021, published 2025)", "key": {"[1]": {"system": "NCI-H292 lung cancer cells", "assay": "FDA drug screening, complete media vs cholesterol-free media without statin (TABLE 1)", "format": "cell-based, human"}, "[2]": {"system": "NCI-H292 lung cancer cells", "assay": "FDA drug screening, complete media vs cholesterol-free media with simvastatin (TABLE 2)", "format": "cell-based, human", "conditions": "for Cholesterol-free media + simvastatin (0.04 μM) / Complete Media: NCI-H292 cells"}, "[3]": {"conditions": "Complete minus Cholesterol-free, […]"}, "[4]": {"conditions": "NCI-H292 cells, cholesterol-free media without statin"}, "[5]": {"conditions": "drug in cholesterol-free media with simvastatin 0.04 μM"}, "[6]": {"conditions": "complete media vs cholesterol-free media + simvastatin (0.04 μM), […]"}, "[7]": {"conditions": "NCI-H292 cells, cholesterol-free media without statin, FDA drug library screen"}, "[8]": {"conditions": "NCI-H292 cells, complete media, FDA drug library screen"}, "[9]": {"conditions": "complete vs cholesterol-free media, >0 enhanced anti-cancer activity, about 0 neutral, <0 antagonist"}, "[10]": {"conditions": "complete media vs cholesterol-free media + simvastatin (0.04 μM), >0 enhanced anti-cancer activity, about 0 neutral, <0 antagonist"}, "[11]": {"conditions": "cholesterol-free media with simvastatin 0.04 μM, FDA drug library screen (TABLE 2)"}, "[12]": {"conditions": "complete media, FDA drug library screen (TABLE 2)"}, "[13]": {"conditions": "complete media minus cholesterol-free media + simvastatin (0.04 μM), >0 enhanced anti-cancer activity, about 0 neutral, <0 antagonist"}, "[14]": {"conditions": "Complete minus Cholesterol-free, >0 enhanced anti-cancer activity, about 0 neutral, <0 antagonist"}, "[15]": {"conditions": "NCI-H292 cells in cholesterol-free media without statin"}, "[16]": {"conditions": "NCI-H292 cells in complete media"}, "[17]": {"conditions": "FDA drug library screen, cholesterol-free media with simvastatin 0.04 μM"}, "[18]": {"conditions": "complete media minus cholesterol-free media + simvastatin, >0 enhanced anti-cancer activity, about 0 neutral, <0 antagonist"}, "[19]": {"conditions": "complete vs cholesterol-free media, greater than 0 enhanced anti-cancer activity, about 0 neutral, below 0 antagonists"}, "[20]": {"conditions": "FDA drug library screen, complete media"}, "[21]": {"conditions": "FDA library drug in cholesterol-free media with simvastatin 0.04 μM"}, "[22]": {"conditions": "FDA library drug in complete media"}}, "note": "Where a name gives a salt, the structure may show the parent alone."}
{"molecule": "[NH2][Pt]1([NH2])[O]CC(=O)[O]1", "note": "[Nedaplatin]", "values": [{"measurement": "Difference", "setting": "[1]; [3]", "result": "−0.25"}, {"measurement": "Cholesterol-free", "setting": "[1]; [4]", "result": 1.253}, {"measurement": "Complete", "setting": "[1]; NCI-H292 cells, complete media", "result": 1.005}, {"measurement": "Cholesterol-free media + simvastatin (0.04 μM)", "setting": "[2]; [5]", "result": 1.191}, {"measurement": "Complete Media", "setting": "[2]; drug in complete media", "result": 0.986}, {"measurement": "Difference", "setting": "[2]; [6]", "result": "−0.20"}]}
{"molecule": "C[C@@H]1O[C@@H](OC[C@H]2O[C@@H](Oc3c(-c4ccc(O)c(O)c4)oc4cc(O)cc(O)c4c3=O)[C@H](O)[C@@H](O)[C@@H]2O)[C@H](O)[C@H](O)[C@H]1O", "note": "[Rutin]", "values": [{"measurement": "Cholesterol-free", "setting": "[1]; [7]", "result": 1.229}, {"measurement": "Complete", "setting": "[1]; [8]", "result": 1.309}, {"measurement": "Difference", "setting": "[1]; [9]", "result": 0.08}, {"measurement": "Cholesterol-free media + simvastatin (0.04 μM)", "setting": "[2]; [5]", "result": 1.71}, {"measurement": "Complete Media", "setting": "[2]; drug in complete media", "result": 1.488}, {"measurement": "Difference", "setting": "[2]; [10]", "result": "−0.22"}]}
{"molecule": "Nc1c2c(nc3ccccc13)CCCC2", "note": "[Tacrine hydrochloride hydrate]", "values": [{"measurement": "Cholesterol-free", "setting": "[1]; [7]", "result": 1.254}, {"measurement": "Complete", "setting": "[1]; [8]", "result": 1.477}, {"measurement": "Difference", "setting": "[1]; [9]", "result": 0.22}, {"measurement": "Cholesterol-free media + simvastatin (0.04 μM)", "setting": "[2]; [11]", "result": 1.406}, {"measurement": "Complete Media", "setting": "[2]; [12]", "result": 1.383}, {"measurement": "Difference", "setting": "[2]; [13]", "result": "−0.02"}]}
{"molecule": "OC[C@H]1OC(O)[C@H](O)[C@@H](O)[C@@H]1O", "note": "(stereo partly drawn) [D-Glucose]", "values": [{"measurement": "Difference", "setting": "[1]; [14]", "result": "−0.06"}, {"measurement": "Cholesterol-free", "setting": "[1]; [7]", "result": 0.3615}, {"measurement": "Complete", "setting": "[1]; [8]", "result": 0.3017}, {"measurement": "Cholesterol-free media + simvastatin (0.04 μM)", "setting": "[2]; [5]", "result": 0.822}, {"measurement": "Complete Media", "setting": "[2]; drug in complete media", "result": 0.5991}, {"measurement": "Difference", "setting": "[2]; [10]", "result": "−0.22"}]}
{"molecule": "O=C(O)Cc1cc(I)c(Oc2ccc(O)c(I)c2)c(I)c1", "note": "[Tiratricol]", "values": [{"measurement": "Difference", "setting": "[1]; Complete minus Cholesterol-free, greater than 0 enhanced anti-cancer activity, about 0 neutral, below 0 antagonists", "result": "−0.55"}, {"measurement": "Cholesterol-free", "setting": "[1]; [15]", "result": 1.869}, {"measurement": "Complete", "setting": "[1]; [16]", "result": 1.318}, {"measurement": "Cholesterol-free media + simvastatin (0.04 μM)", "setting": "[2]; [17]", "result": 0.7173}, {"measurement": "Difference", "setting": "[2]; [18]", "result": 0.43}]}
{"molecule": "COc1ccccc1OCC(O)CN1CCN(CC(=O)Nc2c(C)cccc2C)CC1", "note": "(centres unmarked) [Ranolazine]", "values": [{"measurement": "Cholesterol-free", "setting": "[1]; [4]", "result": 1.774}, {"measurement": "Complete", "setting": "[1]; NCI-H292 cells, complete media", "result": 1.359}, {"measurement": "Difference", "setting": "[1]; [19]", "result": "−0.41"}, {"measurement": "Cholesterol-free media + simvastatin (0.04 μM)", "setting": "[2]; [17]", "result": 1.311}, {"measurement": "Complete Media", "setting": "[2]; [20]", "result": 1.162}, {"measurement": "Difference", "setting": "[2]; [10]", "result": "−0.15"}]}
{"molecule": "NC[C@H](CC(=O)O)c1ccc(Cl)cc1", "note": "[(R)-Baclofen]", "values": [{"measurement": "Difference", "setting": "[1]; [3]", "result": "−0.91"}, {"measurement": "Cholesterol-free", "setting": "[1]; [15]", "result": 2.052}, {"measurement": "Complete", "setting": "[1]; [16]", "result": 1.14}, {"measurement": "Cholesterol-free media + simvastatin (0.04 μM)", "setting": "[2]; [17]", "result": 0.9854}, {"measurement": "Complete Media", "setting": "[2]; [20]", "result": 0.8585}, {"measurement": "Difference", "setting": "[2]; [6]", "result": "−0.13"}]}
{"molecule": "COc1cc2c(cc1OC)C(=O)C(CC1CCN(Cc3ccccc3)CC1)C2", "note": "(centres unmarked) [Donepezil (Hydrochloride)]", "values": [{"measurement": "Difference", "setting": "[1]; [14]", "result": "−0.23"}, {"measurement": "Cholesterol-free", "setting": "[1]; [4]", "result": 0.9321}, {"measurement": "Complete", "setting": "[1]; NCI-H292 cells, complete media", "result": 0.7035}, {"measurement": "Cholesterol-free media + simvastatin (0.04 μM)", "setting": "[2]; [17]", "result": 0.6694}, {"measurement": "Complete Media", "setting": "[2]; [20]", "result": 0.8164}, {"measurement": "Difference", "setting": "[2]; [18]", "result": 0.15}]}
{"molecule": "CC(C)NC[C@@H](O)COc1ccc(CC(N)=O)cc1", "note": "[(R)-(+)-Atenolol]", "values": [{"measurement": "Difference", "setting": "[1]; [14]", "result": 0.07}, {"measurement": "Cholesterol-free", "setting": "[1]; [7]", "result": 0.8467}, {"measurement": "Complete", "setting": "[1]; [8]", "result": 0.9214}, {"measurement": "Cholesterol-free media + simvastatin (0.04 μM)", "setting": "[2]; [21]", "result": 1.166}, {"measurement": "Complete Media", "setting": "[2]; [22]", "result": 0.872}, {"measurement": "Difference", "setting": "[2]; [10]", "result": "−0.29"}]}
{"molecule": "O=C(O[C@@H]1C[C@@H]2C[C@H]3C[C@H](C1)N2CC3=O)c1c[nH]c2ccccc12", "note": "[Dolasetron]", "values": [{"measurement": "Cholesterol-free", "setting": "[1]; [4]", "result": 1.4}, {"measurement": "Complete", "setting": "[1]; NCI-H292 cells, complete media", "result": 0.9782}, {"measurement": "Difference", "setting": "[1]; [19]", "result": "−0.42"}, {"measurement": "Cholesterol-free media + simvastatin (0.04 μM)", "setting": "[2]; cholesterol-free media with simvastatin 0.04 μM, cell growth value in FDA drug screen", "result": 0.9714}, {"measurement": "Complete Media", "setting": "[2]; complete media, cell growth value in FDA drug screen", "result": 1.02}, {"measurement": "Difference", "setting": "[2]; [18]", "result": 0.05}]}
{"molecule": "CC(N/C(=N\\C#N)Nc1ccncc1)C(C)(C)C", "note": "(centres unmarked) [Pinacidil monohydrate]", "values": [{"measurement": "Difference", "setting": "[1]; [14]", "result": "−0.26"}, {"measurement": "Cholesterol-free", "setting": "[1]; [4]", "result": 1.093}, {"measurement": "Complete", "setting": "[1]; NCI-H292 cells, complete media", "result": 0.8337}, {"measurement": "Cholesterol-free media + simvastatin (0.04 μM)", "setting": "[2]; [21]", "result": 1.085}, {"measurement": "Complete Media", "setting": "[2]; [22]", "result": 0.8064}, {"measurement": "Difference", "setting": "[2]; [10]", "result": "−0.28"}]}
{"molecule": "Nc1ncn([C@@H]2O[C@H](CO)[C@@H](O)[C@H]2O)c(=O)n1", "note": "[5-Azacytidine]", "values": [{"measurement": "Cholesterol-free", "setting": "[1]; [4]", "result": 1.157}, {"measurement": "Complete", "setting": "[1]; NCI-H292 cells, complete media", "result": 0.8064}, {"measurement": "Difference", "setting": "[1]; [19]", "result": "−0.35"}, {"measurement": "Cholesterol-free media + simvastatin (0.04 μM)", "setting": "[2]; [11]", "result": 0.9383}, {"measurement": "Complete Media", "setting": "[2]; [12]", "result": 0.8858}, {"measurement": "Difference", "setting": "[2]; [13]", "result": "−0.05"}]}
{"molecule": "OC(CCN1CCCCC1)(c1ccccc1)C1CC2C=CC1C2", "note": "(centres unmarked) [Biperiden (Hydrochloride)]", "values": [{"measurement": "Cholesterol-free", "setting": "[1]; [7]", "result": 1.12}, {"measurement": "Complete", "setting": "[1]; [8]", "result": 1.311}, {"measurement": "Difference", "setting": "[1]; [9]", "result": 0.19}, {"measurement": "Cholesterol-free media + simvastatin (0.04 μM)", "setting": "[2]; [17]", "result": 0.8257}, {"measurement": "Complete Media", "setting": "[2]; [20]", "result": 1.742}, {"measurement": "Difference", "setting": "[2]; [18]", "result": 0.92}]}
{"molecule": "CN1CC(=O)N2[C@H](c3ccc4c(c3)OCO4)c3[nH]c4ccccc4c3C[C@@H]2C1=O", "note": "[Tadalafil]", "values": [{"measurement": "Cholesterol-free", "setting": "[1]; [4]", "result": 1.298}, {"measurement": "Complete", "setting": "[1]; NCI-H292 cells, complete media", "result": 0.971}, {"measurement": "Difference", "setting": "[1]; [19]", "result": "−0.33"}, {"measurement": "Cholesterol-free media + simvastatin (0.04 μM)", "setting": "[2]; [17]", "result": 1.05}, {"measurement": "Complete Media", "setting": "[2]; [20]", "result": 0.9711}, {"measurement": "Difference", "setting": "[2]; [10]", "result": "−0.08"}]}
{"molecule": "C=CC(N)CCC(=O)O", "note": "(centres unmarked) [Vigabatrin]", "values": [{"measurement": "Cholesterol-free", "setting": "[1]; [7]", "result": 0.7255}, {"measurement": "Complete", "setting": "[1]; [8]", "result": 1.221}, {"measurement": "Difference", "setting": "[1]; [9]", "result": 0.50}, {"measurement": "Cholesterol-free media + simvastatin (0.04 μM)", "setting": "[2]; [11]", "result": 0.8099}, {"measurement": "Complete Media", "setting": "[2]; [12]", "result": 0.7743}, {"measurement": "Difference", "setting": "[2]; [13]", "result": "−0.04"}]}
